Test results taken from US7173018B2, “Phospholipid derivatives of non-steroidal anti-inflammatory drugs” (D-Pharm, Ltd., priority 1998, dated 2007).
Values after ≈ are worked out from the molar mass of the structure shown.

Experiments:
[1] = Solubility measurements of lipid derivatives in water, saline, ethanol and octanol; settings: for Solubility (mg/ml) Saline / Solubility (mg/ml) Water: 22° C.; a) gel, b) suspension obtained after filtration through 0.45 μm filter; for solubility: 22 °C
Description: The solubility of several lipid derivatives of diclofenac, indomethacin, ibuprofen, naproxen and 6-methoxy-2-naphthylacetic acid was determined at room temperature (22° C.) in aqueous solutions (water and saline) and in organic solutions (ethanol and octanol). In addition, the partition coefficient (Pc) values for these compounds, i.e their distribution ratios between the organic and the aqueous phases (octanol/saline), were calculated.

[2] = Octanol/saline distribution (partition coefficient Pc), shake-flask technique; settings: for log Pc (octanol/saline distribution coefficient): 22° C., shake-flask
Description: In addition, the partition coefficient (Pc) values for these compounds, i.e their distribution ratios between the organic and the aqueous phases (octanol/saline), were calculated.
The distribution of the compounds between the organic and the aqueous phases was measured by the shake-flask technique. Five milliliters of octanol containing about 3 mg of the studied compound were mixed with 5 ml saline. The mixture was shaken overnight at 22° C. before the octanol and saline phases were separated. One ml from each phase was dissolved into an appropriate volume of ethanol so that the optical absorption of the obtained solution is in range of 0.1 to 1.0.
The coefficient Pc is calculated by the following ratio:
[formula] where Aoct is the optical absorption, at λmax, of the ethanol solution in which one ml of octanol phase is dissolved, V1 is the volume of this ethanol solution and l1 is the width (cm) of the cuvette used for measurement of the optical absorption.
Asal is the optical absorption, at λmax, of the ethanol solution in which the one ml of saline phase is dissolved, V2 is the volume of this ethanol solution and l2 is the width (cm) of the cuvette used for measurement of the optical absorption.

[3] = In vitro cleavage of DP-DFC to free diclofenac in rat brain homogenate; assay type: in vitro ADME; settings: for Cleavage of diclofenac from its lipid conjugate: brain homogenate, 37° C., up to 6 hours
Description: (§1) The ability of the compounds of the invention to be cleaved to yield free diclofenac, was studied in vitro in homogenates of rat brain and liver. Two compounds were tested: the prodrug 1-Stearoyl-2-{4-[2-(2,6-dichloroanilino)-phenylacetamido]butanoyl}-sn-glycero-3-phosphocholine (DP-DFC; Z=3), and the compound 1-Stearoyl-2-{3-[2-(2,6-dichloroanilino)-phenylacetamido]propanoyl}-sn-glycero-3-phosphatidylcholine (DP-DFC; Z=2), comprising, respectively, a bridging group having a total of 4 and 3 carbon atoms.
(§2) Liver and brain were surgically removed, under pentobarbitone anesthesia, from male Sabra rats weighing 250–280 g. About 1–1.5 g samples from each tissue were homogenized in PBS pH=7.4 (Dulbecco) at a ratio of 1:9 w/v of tissue to buffer.
(§3) DP-DFC was added to each homogenate to a final concentration of 40 μg/ml. The mixtures were incubated at 37° C. in shaking for 1, 2, 3 and 6 hours, and then were placed on ice to stop the reaction.
(§4) The amounts of free diclofenac in 1 ml samples from either the brain or liver homogenates were determined by reverse phase HPLC assay. The amount of protein in each sample was assayed by the Lowry method.
(§5) The result for each time point represents the average of five repetitions using tissues from five individual animals.
(§6) In order to evaluate the effect of temperature on the reaction, a parallel set of incubations was carried out at 4° C.

[4] = In vitro cleavage of DP-DFC to free diclofenac in rat liver homogenate; assay type: in vitro ADME; settings: 37° C., up to 6 hours
Description: as §1, §2, §3, §4, §5, §6

Structure (SMILES)	Solubility (mg/ml) Saline [1]	Solubility (mg/ml) Water [1]	log Pc (octanol/saline distribution coefficient) [2]	solubility ([1]; saline, saline or isotonic) [µg/mL]	solubility ([1]; water) [µg/mL]	logD [2]	Cleavage of diclofenac from its lipid conjugate [3]	Cleavage of diclofenac from its lipid conjugate [4]	Cleavage of prodrug to DFC on cooling to 4° C. ([3]; parallel set of incubations in homogenates at 4° C. (data not shown))
CCCCCCCCCCCCCCCCCC(=O)OC[C@H](COP(=O)([O-])OCC[N+](C)(C)C)OC(=O)CCCNC(=O)[C@@H](C)c1ccc2cc(OC)ccc2c1 [Nap n=3, 1-Stearoyl-2-{4-[(S)-6-methoxy-α-methyl-2-naphtaleneacetamido]butanoyl}-sn-glycero-3-phosphocholine]	0.09^a) mg/ml	0.12^a) mg/ml	≧3						
CCCCCCCCCCCCCCCCCC(=O)OC[C@H](COP(=O)([O-])OCC[N+](C)(C)C)OC(=O)CCCCCNC(=O)C(C)c1ccc(CC(C)C)cc1 (stereo partly drawn) [Ibu n=5, 1-Stearoyl-2-{6-[α-methyl-4-(2-methylpropyl)benzeneacetamido]hexanoyl}-sn-glycero-3-phosphocholine]			≧3	500 (≈ 606 µM)	500 (≈ 606 µM)				
CCCCCCCCCCCCCCCCCC(=O)OC[C@H](COP(=O)([O-])OCC[N+](C)(C)C)OC(=O)CCNC(=O)C(C)c1ccc(CC(C)C)cc1 (stereo partly drawn) [Ibu n=2, 1-Stearoyl-2-{3-[α-methyl-4-(2-methylpropyl)benzeneacetamido]propanoyl}-sn-glycero-3-phosphocholine]				300 (≈ 383 µM)	200 (≈ 255 µM)	1.8			
CCCCCCCCCCCCCCCCCC(=O)OC[C@H](COP(=O)([O-])OCC[N+](C)(C)C)OC(=O)CCNC(=O)Cc1ccccc1Nc1c(Cl)cccc1Cl [DCF n=2, 1-Stearoyl-2-{3-[2-(2,6-dichloroanilino)phenylacetamido]propanoyl}-sn-glycero-3-phosphocholine]				2 (≈ 2.29 µM)	3 (≈ 3.44 µM)	2.8 ± 0.1	not	not	
CCCCCCCCCCCCCCCCCC(=O)OC[C@H](COP(=O)([O-])OCC[N+](C)(C)C)OC(=O)CCNC(=O)[C@@H](C)c1ccc2cc(OC)ccc2c1 [Nap n=2, 1-Stearoyl-2-{3-[(S)-6-methoxy-α-methyl-2-naphtaleneacetamido]propanoyl}-sn-glycero-3-phosphocholine]	0.06^a) mg/ml	0.01^a) mg/ml	≧3						
CCCCCCCCCCCCCCCCCC(=O)OC[C@H](COP(=O)([O-])OCC[N+](C)(C)C)OC(=O)CCCCNC(=O)Cc1c(C)n(C(=O)c2ccc(Cl)cc2)c2ccc(OC)cc12 [Indo n=4, 1-Stearoyl-2-{5-[1-(p-chlorobenzoyl)-5-methoxy-2-methyl-3-indolylacetamido]valeroyl}-sn-glycero-3-phosphocholine]			2.9	~100 (≈ 104 µM)	< 10				
CCCCCCCCCCCCCCCCCC(=O)OC[C@H](COP(=O)([O-])OCC[N+](C)(C)C)OC(=O)CCCCCCCNC(=O)Cc1ccccc1Nc1c(Cl)cccc1Cl [DCF n=7, 1-Stearoyl-2-{8-[2-(2,6-dichloroanilino)phenylacetamido]octanoyl}-sn-glycero-3-phosphocholine]			≧3	1 (≈ 1.06 µM)	1 (≈ 1.06 µM)				
CCCCCCCCCCCCCCCCCC(=O)OC[C@H](COP(=O)([O-])OCC[N+](C)(C)C)OC(=O)CCCNC(=O)Cc1c(C)n(C(=O)c2ccc(Cl)cc2)c2ccc(OC)cc12 [Indo n=3, 1-Stearoyl-2-{4-[1-(p-chlorobenzoyl)-5-methoxy-2-methyl-3-indolylacetamido]butanoyl}-sn-glycero-3-phosphocholine]				~1500 (≈ 1580 µM)	< 600	2.5			
CCCCCCCCCCCCCCCCCC(=O)OC[C@H](COP(=O)([O-])OCC[N+](C)(C)C)OC(=O)CCCCNC(=O)Cc1ccccc1Nc1c(Cl)cccc1Cl [DCF n=4, 1-Stearoyl-2-{5-[2-(2,6-dichloroanilino)phenylacetamido]valeroyl}-sn-glycero-3-phosphocholine]			≧3	2 (≈ 2.22 µM)	2 (≈ 2.22 µM)				
CCCCCCCCCCCCCCCCCC(=O)OC[C@H](COP(=O)([O-])OCC[N+](C)(C)C)OC(=O)CCCCCNC(=O)Cc1c(C)n(C(=O)c2ccc(Cl)cc2)c2ccc(OC)cc12 [Indo n=5, 1-Stearoyl-2-{6-[1-(p-chlorobenzoyl)-5-methoxy-2-methyl-3-indolylacetamido]hexanoyl}-sn-glycero-3-phosphocholine]				~10 (≈ 10.2 µM)	< 10	3.2			
CCCCCCCCCCCCCCCCCC(=O)OC[C@H](COP(=O)([O-])OCC[N+](C)(C)C)OC(=O)CCCNC(=O)Cc1ccccc1Nc1c(Cl)cccc1Cl [DCF n=3, 1-Stearoyl-2-{4-[2-(2,6-dichloroanilino)phenylacetamido]butanoyl}-sn-glycero-3-phosphocholine]			≧3	2 (≈ 2.25 µM)	2 (≈ 2.25 µM)		significant cleavage	significant cleavage	completely inhibited
CCCCCCCCCCCCCCCCCC(=O)OC[C@H](COP(=O)([O-])OCC[N+](C)(C)C)OC(=O)CCNC(=O)Cc1c(C)n(C(=O)c2ccc(Cl)cc2)c2ccc(OC)cc12 [Indo n=2, 1-Stearoyl-2-{3-[1-(p-chlorobenzoyl)-5-methoxy-2-methyl-3-indolylacetamido]propanoyl}-sn-glycero-3-phosphocholine]				~1500 (≈ 1610 µM)	< 900	2.5			
CCCCCCCCCCCCCCCCCC(=O)OC[C@H](COP(=O)([O-])OCC[N+](C)(C)C)OC(=O)CCCCCCCCCCCNC(=O)Cc1ccccc1Nc1c(Cl)cccc1Cl [DCF n=11, 1-Stearoyl-2-{12-[2-(2,6-dichloroanilino)phenylacetamido]dodecanoyl}-sn-glycero-3-phosphocholine]			≧2.5	< 1	< 1				
CCCCCCCCCCCCCCCCCC(=O)OC[C@H](COP(=O)([O-])OCC[N+](C)(C)C)OC(=O)CCCCCCCNC(=O)Cc1c(C)n(C(=O)c2ccc(Cl)cc2)c2ccc(OC)cc12 [Indo n=7, 1-Stearoyl-2-{8-[1-(p-chlorobenzoyl)-5-methoxy-2-methyl-3-indolylacetamido]octanoyl}-sn-glycero-3-phosphocholine]					~5 (≈ 4.98 µM)	3.7			
CCCCCCCCCCCCCCCCCC(=O)OC[C@H](COP(=O)([O-])OCC[N+](C)(C)C)OC(=O)CCCCCNC(=O)[C@@H](C)c1ccc2cc(OC)ccc2c1 [Nap n=5, 1-Stearoyl-2-{6-[(S)-6-methoxy-α-methyl-2-naphtaleneacetamido]hexanoyl}-sn-glycero-3-phosphocholine]	0.2^a) mg/ml	0.2^a) mg/ml	≧3						
